Where two headings read alike, the source gives them in different places.
Key:
[1] = biological target: T1, human type 2 5α-reductase (Homo sapiens, UniProt P31213); experiment: 5α-reductase in vitro inhibitory activity, human type 2
T1 sequence (P31213 1-254): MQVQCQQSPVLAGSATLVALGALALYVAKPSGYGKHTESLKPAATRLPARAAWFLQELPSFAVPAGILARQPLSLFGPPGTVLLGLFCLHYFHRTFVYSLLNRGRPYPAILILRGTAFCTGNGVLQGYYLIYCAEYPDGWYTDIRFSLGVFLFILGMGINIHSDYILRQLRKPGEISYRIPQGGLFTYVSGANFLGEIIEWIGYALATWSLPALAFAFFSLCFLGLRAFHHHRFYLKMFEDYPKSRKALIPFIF
Method: (§1) Microsomes were prepared by homogenization of the tissue or cells, followed by differential centrifugation of the homogenate. […] Corresponding incubations were carried out with no test compound as a control study.
(§2) The percentage of conversion of testosterone to DHT in the presence of test compounds compared to the corresponding conversion in the control study was estimated using high pressure liquid chromatography (HPLC) with radiochemical detection.

[2] = biological target: T2, human type 1 5α-reductase (Homo sapiens, UniProt P18405); experiment: 5α-reductase in vitro inhibitory activity, human type 1
T2 sequence (P18405 1-259): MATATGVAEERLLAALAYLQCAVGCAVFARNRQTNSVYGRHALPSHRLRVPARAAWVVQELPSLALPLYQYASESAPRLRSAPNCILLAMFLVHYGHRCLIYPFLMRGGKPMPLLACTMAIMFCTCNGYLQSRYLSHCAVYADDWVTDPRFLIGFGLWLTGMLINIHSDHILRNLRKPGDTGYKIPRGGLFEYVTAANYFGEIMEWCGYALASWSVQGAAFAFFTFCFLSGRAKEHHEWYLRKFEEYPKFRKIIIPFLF
Method: as §1
For type 2 IC50 measurements, assay components except testosterone were preincubated for 20 minutes at pH 6.0, and following the addition of 8nM testosterone the assays were allowed to proceed for 20-40 minutes. The percentage of conversion of testosterone to DHT in the presence of test compounds compared to the corresponding conversion in the control study was estimated using high pressure liquid chromatography (HPLC) with radiochemical detection.

[3] = biological target: Rat Prostatic 5α-reductase; experiment: 5α-reductase in vitro inhibitory activity, rat prostatic; conditions: read-out: IC50 Rat Prostatic; microsomes derived from prostate tissue from the rat
Method: as §1, §2

[4] = read-out: IC50 Human Type 2, microsomes, preincubated 20 minutes at pH 6.0, 8nM testosterone, 1 mM NADPH
[5] = read-out: IC50 Human Type 1, microsomes of recombinant baculovirus infected SF9 cells, preincubated 10 minutes at pH 7.0, 100nM testosterone, 1 mM NADPH

| Compound | IC50 [1, 4] [nM] | IC50 [2, 5] [nM] | IC50 [3] [nM] | IC50 [1] [nM] | IC50 [2] [nM] |
| --- | --- | --- | --- | --- | --- |
| 17β-N-2-(3-N-Methylpyrrole)ethyl-carbamoyl-6-azaandrost-4-en-3-one [Compound 29] | 10 to 100 | > 100 | 10 to 100 |  |  |
| 17β-N-(2-t-Butyl-5-(N-methyl)methylsulfonamide)phenyl-6-azaandrost-4-en-3-one [Compound 91] | < 10 | 10 to 100 | 10 to 100 |  |  |
| C[C@]12CC[C@H]3[C@@H](CNC4=CC(=O)CC[C@@]43C)[C@@H]1CC[C@@H]2C(=O)NC1c2ccccc2-c2ccccc21 [Compound 1, 17β-N-9-Fluorenyl-carbamoyl-6-azaandrost-4-en-3-one] |  |  | 10 to 100 | < 10 | > 100 |
| C[C@]12CC[C@H]3[C@@H](CNC4=CC(=O)CC[C@@]43C)[C@@H]1CC[C@@H]2C(=O)CC1CCCCC1 [Compound 2, 17β-(1-Oxo-2-cyclohexylethyl)-6-azaandrost-4-en-3-one] |  |  | < 10 | < 10 | < 10 |
| CC(C)(C)C(=O)OCC1CCC2C3CNC4=CC(=O)CCC4(C)C3CCC12C (stereo not drawn) [Compound 3, 17β-Hydroxymethyl-(trimethylacetate)-6-azaandrost-4-en-3-one] |  |  | < 10 | 10 to 100 | 10 to 100 |
| C[C@]12CC[C@H]3[C@@H](CNC4=CC(=O)CC[C@@]43C)[C@@H]1CC[C@@H]2C(=O)Nc1ccc2c(c1)CCC2 [Compound 4, 17β-N-5-Indanylcarbamoyl-6-azaandrost-4-en-3-one] |  |  | > 100 | < 10 | > 100 |
| CC12CCC(=O)C=C1NCC1C2CCC2(C)C(C(=O)Nc3ccc(N4CCOCC4)cc3)CCC12 (stereo not drawn) [Compound 5, 17β-N-Phenyl-(4-morpholino)-carbamoyl-6-azaandrost-4-en-3-one] |  |  | 10 to 100 | 10 to 100 | > 100 |
| CC1=C2NC[C@H]3[C@@H]4CC[C@H](C(=O)NC5(c6ccc(Cl)cc6)CCCC5)[C@@]4(C)CC[C@@H]3[C@@]2(C)CCC1=O [Compound 125, 17β-N-1-(4-Chlorophenyl)cyclopentyl-carbamovl-6-azaandrost-4-methyl-4-en-3-one] |  |  |  | < 10 | < 10 |
| C[C@]12CC[C@H]3[C@@H](CNC4=C(Cl)C(=O)CC[C@@]43C)[C@@H]1CC[C@@H]2C(=O)Nc1cc(C(F)(F)F)ccc1C(F)(F)F [Compound 126, 17β-N-(2,5-bis(Trifluoromethyl))phenyl-carbamoyl-6-azaandrost-4-chloro-4-en-3-one] |  |  |  | < 10 | < 10 |
| CC(C)(C)c1ccc(C(F)(F)F)cc1NC(=O)[C@H]1CC[C@H]2[C@@H]3CNC4=C(Cl)C(=O)CC[C@]4(C)[C@H]3CC[C@]12C [Compound 127, 17β-N-(2-t-Butyl-5-trifluoromethyl)phenyl-carbamoyl-6-azaandrost-4-chloro-4-en-3-one] |  |  |  | < 10 | < 10 |
| COc1ccc(C(C)(C)C)cc1NC(=O)[C@H]1CC[C@H]2[C@@H]3CNC4=CC(=O)CC[C@]4(C)[C@H]3CC[C@]12C [Compound 128, 17β-N-(2-Methoxy-5-t-butyl)phenyl-carbamoyl-6-azaandrost-4-en-3-one] |  |  |  | < 10 | < 10 |
| C[C@]12CC[C@H]3[C@@H](CNC4=CC(=O)CC[C@@]43C)[C@@H]1CC[C@@H]2C(=O)Nc1cc(C(F)(F)F)ccc1F [Compound 129] |  |  |  | < 10 | 10 to 100 |
| CCC1(CC)CC1(NC(=O)[C@H]1CC[C@H]2[C@@H]3CNC4=CC(=O)CC[C@]4(C)[C@H]3CC[C@]12C)c1ccc(-c2ccccc2)cc1 (stereo partly drawn) [Compound 130, 17β-N-(1-(4-Biphenyl)-2,2-diethyl)cyclopropyl-carbamoyl-6-azaandrost-4-en-3-one] |  |  |  | < 10 | < 10 |
| CCC1(CC)CC1(NC(=O)[C@H]1CC[C@H]2[C@@H]3CNC4=CC(=O)CC[C@]4(C)[C@H]3CC[C@]12C)c1ccc(C(F)(F)F)cc1 (stereo partly drawn) [Compound 131, 17β-N-(1-(4-Trifluoromethylphenyl)-2,2-diethyl)cyclopropyl-carbamoyl-6-azaandrost-4-en-3-one] |  |  |  | < 10 | < 10 |
| COC(=O)c1sc(C(C)(C)C)cc1NC(=O)[C@H]1CC[C@H]2[C@@H]3CNC4=CC(=O)CC[C@]4(C)[C@H]3CC[C@]12C [Compound 132, 17β-N-3-(2-Carbomethoxy-5-t-butyl)thiophenyl-carbamoyl-6-azaandrost-4-en-3-one] |  |  |  | < 10 | 10 to 100 |
| C[C@]12CC[C@H]3[C@@H](CNC4=CC(=O)CC[C@@]43C)[C@@H]1CC[C@@H]2C(=O)Nc1ccccc1S(=O)(=O)c1ccccc1 [Compound 133, 17β-N-(2-Phenylsulfonyl)phenyl-carbamoyl-6-azaandrost-4-en-3-one] |  |  |  | < 10 | > 100 |
| CCOC(=O)c1ccc(NC(=O)[C@H]2CC[C@H]3[C@@H]4CNC5=CC(=O)CC[C@]5(C)[C@H]4CC[C@]23C)cc1 [Compound 134, 17β-N-(4-Carboethoxy)phenyl-carbamoyl-6-azaandrost-4-en-3-one] |  |  |  | < 10 | 10 to 100 |
| CC(C)(C)c1ccc(-c2ccc(C(F)(F)F)cc2NC(=O)[C@H]2CC[C@H]3[C@@H]4CNC5=CC(=O)CC[C@]5(C)[C@H]4CC[C@]23C)cc1 [Compound 135] |  |  |  | < 10 | > 100 |
| CC(C)(C)c1ccc(C2(NC(=O)[C@H]3CC[C@H]4[C@@H]5CNC6=CC(=O)CC[C@]6(C)[C@H]5CC[C@]34C)CCCCCC2)cc1 [Compound 136, 17β-N-1-(4-t-Butylphenyl)cycloheptyl-carbamoyl-6-azaandrost-4-en-3-one] |  |  |  | < 10 | < 10 |
| C[C@]12CC[C@H]3[C@@H](CNC4=CC(=O)CC[C@@]43C)[C@@H]1CC[C@@H]2C(=O)Nc1cccc(C(=O)O)c1 [Compound 137, 17β-N-(3-Carboxy)phenyl-carbamoyl-6-azaandrost-4-en-3-one] |  |  |  | < 10 | > 100 |
| C[C@]12CC[C@H]3[C@@H](CNC4=CC(=O)CC[C@@]43C)[C@@H]1CC[C@@H]2C(=O)Nc1cccc2c1C(=O)c1ccccc1-2 [Compound 138, 17β-N-1-(9-Fluorenonyl)-carbamoyl-6-azaandrost-4-en-3-one] |  |  |  | < 10 | 10 to 100 |
| CC(C)(C)c1ccc(C2(NC(=O)[C@H]3CC[C@H]4[C@@H]5CNC6=C(Cl)C(=O)CC[C@]6(C)[C@H]5CC[C@]34C)CCCCC2)cc1 [Compound 139, 17β-N-1-(4-t-Butylphenyl)cyclohexyl-carbamoyl-6-azaandrost-4-chloro-4-en-3-one] |  |  |  | < 10 | < 10 |
| CCc1cc(-c2ccc(Cl)cc2)cc(CC)c1NC(=O)[C@H]1CC[C@H]2[C@@H]3CNC4=CC(=O)CC[C@]4(C)[C@H]3CC[C@]12C [Compound 140, 17β-N-(2,6-Diethyl-4-(4-chlorophenyl))phenyl-carbamoyl-6-azaandrost-4-en-3-one] |  |  |  | < 10 | < 10 |
| C[C@]12CC[C@H]3[C@@H](CNC4=CC(=O)CC[C@@]43C)[C@@H]1CC[C@@H]2C(=O)NNc1ccccc1 [Compound 141, 17β-N-(2-Phenyl)-hydrazidyl-carbamoyl-6-azaandrost-4-en-3-one] |  |  |  | < 10 | > 100 |
| CC(C)(C)NC(=O)c1ccc(C(F)(F)F)cc1NC(=O)[C@H]1CC[C@H]2[C@@H]3CNC4=CC(=O)CC[C@]4(C)[C@H]3CC[C@]12C [Compound 142, 17β-N-(2-t-Butylcarbamoyl-5-trifluoromethyl)phenyl-carbamoyl-6-azaandrost-4-en-3-one] |  |  |  | < 10 | > 100 |
| CC(C)(C)c1ccc(C2(NC(=O)[C@H]3CC[C@H]4[C@@H]5CNC6=CC(=O)CC[C@]6(C)[C@H]5CC[C@]34C)CCSCC2)cc1 [Compound 143, 17β-N-4-(4-t-Butylphenyl)tetrahydrothiopyranyl-carbamoyl-6-azaandrost-4-en-3-one] |  |  |  | < 10 | < 10 |
| CC(C)(C)c1ccc(C2(NC(=O)[C@H]3CC[C@H]4[C@@H]5CNC6=CC(=O)CC[C@]6(C)[C@H]5CC[C@]34C)C3CCCC2CCC3)cc1 (stereo partly drawn) [Compound 144, 17β-N-9-(4-t-Butylphenyl)bicyclo[3.3.1]nonyl-carbamoyl-6-azaandrost-4-en-3-one] |  |  |  | < 10 | < 10 |
| CC(C)(C)c1ccc(C2(NC(=O)[C@H]3CC[C@H]4[C@@H]5CNC6=CC(=O)CC[C@]6(C)[C@H]5CC[C@]34C)CCOCC2)cc1 [Compound 145, 17β-N-4-(4-t-Butylphenyl)tetrahydropyranyl-carbamoyl-6-azaandrost-4-en-3-one] |  |  |  | < 10 | < 10 |
| C[C@]12CC[C@H]3[C@@H](CNC4=CC(=O)CC[C@@]43C)[C@@H]1CC[C@@H]2C(=O)NC1(c2ccc(Cl)cc2)CCCCC1 [Compound 146, 17β-N-1-(4-Chlorophenyl)cyclohexyl-carbamoyl-6-azaandrost-4-en-3-one] |  |  |  | < 10 | < 10 |
| CC(C)(C)c1ccc(-c2ccc(C(C)(C)C)c(NC(=O)[C@H]3CC[C@H]4[C@@H]5CNC6=CC(=O)CC[C@]6(C)[C@H]5CC[C@]34C)c2)cc1 [Compound 147, 17β-N-(2-t-Butyl-5-(4-t-butyl)phenyl)phenyl-carbamoyl-6-azaandrost-4-en-3-one] |  |  |  | < 10 | < 10 |
